Experimental data taken from patent publication US11957684B2, “Treatment of heavy menstrual bleeding associated with uterine fibroids” (Sumitomo Pharma Switzerland GmbH, priority 2016, dated 2024).

Tests used:
[1] = system: LH, FSH, estradiol (E2), progesterone (P), CA125; experiment: Example 8A: serum LH, FSH, E2, P and CA125; type: in vivo, human
Text: Study participants were premenopausal (≥20 years) Japanese women with endometriosis (EM)-associated pain who completed a preceding 12-week study and were eligible to continue for an additional 12-week treatment were enrolled. The participants has confirmed normal regular menstrual cycles (25 to 38 days per cycle) and diagnosed to have EM and EM-related dysmenorrhea and pelvic pain of at least moderate severity as determined by the physician B&B scale. The primary endpoint was the safety including assessment of change in bone mineral density (BMD) using dual energy x-ray absorptiometry, adverse events, vital signs, weight, 12-lead electrocardiograms, and clinical laboratory tests. […] Baseline characteristics were similar between randomized patients and all patients who entered the extension study.

women with endometriosis = experiment: Example 7: bone mineral density and serum hormones; type: in vivo, human
Text: Subjects were diagnosed with endometriosis within the 5 years before screening and had dysmenorrhea and pelvic pain, of which either 1 or both was at least “moderate” as determined by the investigator using the Biberoglu & Behrman (B&B) scale. […] Secondary endpoints included VAS score for pelvic pain, dysmenorrhea, and dyspareunia during the treatment period.

endometriosis = experiment: Example 7 12-week study in endometriosis: efficacy (VAS, B&B, EHP-30); type: in vivo, human; conditions: 3.75 mg sc/4 wk
Protocol: Secondary endpoints included VAS score for pelvic pain, dysmenorrhea, and dyspareunia during the treatment period. […] Subjects recorded in the patient diary every day until the end of treatment. […] Designated examinations and evaluations were performed at each visit. As used in the examples, the VAS score was evaluated using a 100 mm scale. For pain intensity, the scale was anchored by “no pain” (score of 0) and “pain as bad as you can imagine” (score of 100). […] The above items were evaluated using a patient diary that was distributed by the sponsor. Subjects filled out the patient diary every day during the treatment period or until early termination. If taking prohibited analgesics, subjects recorded this fact in the patient diary along with the accompanying pain symptoms before use of analgesics. As used in the examples, pain during menstruation and pelvic pain unrelated to menstruation were evaluated using scores on the M-B&B and B&B. The M-B&B scores were recorded by subjects on the patient diary supplied by the sponsor. Subjects filled out the patient diary every day during the treatment period or until early termination. If taking prohibited analgesics, subjects recorded this fact in the patient diary along with the accompanying pain symptoms before use of analgesics. The investigator or subinvestigator assessed each patient's pain through interviews and filled out a B&B once a month. The items that were assessed are shown below. The M-B&B score included: dysmenorrhea (severe, moderate, mild, no pain, or no menstruation); pelvic pain (severe, moderate, mild, or no pain); deep dyspareunia (severe, moderate, mild, no pain, or no intercourse). The B&B score included: dysmenorrhea (severe, moderate, mild, none, or not applicable); dyspareunia (severe, moderate, mild, none, or not applicable); pelvic pain (severe, moderate, mild, or none); pelvic tenderness (severe, moderate, mild, or none); and induration (severe, moderate, mild, or none). As used in the examples, the EHP-30 score was obtained by subjects assessing and recording their own QOL using the EHP-30 questionnaire.

[2] = system: women with uterine fibroids; experiment: Example 10: safety; conditions: 24 wk
Text: Secondary endpoints for safety included: Adverse events (AEs), vital signs, weight, standard 12-lead electrocardiogram (ECG), clinical laboratory tests, BMD, biochemical bone metabolism markers (serum N-telopeptide [NTELOP] and bone specific alkaline phosphatase [BAP])

uterine fibroids = experiment: Example 10 phase 3 study versus leuprorelin in uterine fibroids: efficacy; type: in vivo, human; conditions: between Week 6 and Week 12
Protocol: Subjects were aged 20 years or older inclusive, with uterine fibroids. […] The number of sites for this study was approximately 40.
The leuprorelin subjects were administered 1.88 mg leuprorelin, 3.75 mg leuprorelin, or placebo subcutaneously once every 4 weeks. The duration of treatment for both groups was 24 weeks, and the follow-up period was 4 weeks.
Assessment included answers to the uterine fibroid symptom and quality of life questionnaire provided in FIGS. 3A-3C; answers to the work productivity and activity impairment questionnaire: general health provided in FIGS. 66A-66B; clinical laboratory tests for hematology, chemistries, urinalysis, hormone, and biochemical bone metabolism markers.

[3] = Compound 1 40 mg, leuprolide acetate 3.75 mg/4 wk

CCNC(=O)[C@@H]1CCCN1C(=O)[C@H](CCCNC(=N)N)NC(=O)[C@H](CC(C)C)NC(=O)[C@@H](CC(C)C)NC(=O)[C@H](Cc1ccc(O)cc1)NC(=O)[C@H](CO)NC(=O)[C@H](Cc1c[nH]c2ccccc12)NC(=O)[C@H](Cc1c[nH]cn1)NC(=O)[C@@H]1CCC(=O)N1 [leuprolide acetate, reference compound]
median change in serum E2 from baseline ([1]; 3.75 mg sc/4 wk, Week 24): -40.0 pg/mL | median change in serum FSH from baseline ([1]; 3.75 mg sc/4 wk, Week 24): −2.730 mIU/mL | median change in serum LH from baseline ([1]; 3.75 mg sc/4 wk, Week 24): −3.140 mIU/mL | median change in serum progesterone (P) from baseline ([1]; 3.75 mg sc/4 wk, Week 24): -0.070 ng/mL | percent change from baseline in CA125 concentration ([1]; 3.75 mg sc/4 wk, Week 24): −54.15±46.359% | subjects with CA125 less than or equal to 35 U/mL ([1]; 3.75 mg sc/4 wk, Week 24): 88.9% | week at which median serum E2 decreased to LLQ [1, 3]: 4 Week | week from which median serum estradiol was below LLQ (women with endometriosis; [3]): 4 Week | mean estradiol serum concentration four weeks after discontinuation (women with endometriosis; FIG. 162, relative to control (placebo)): only about one-fifth of the control | Physician B&B, dysmenorrhea (endometriosis; Week 12): −2.1 | Physician B&B, dyspareunia (endometriosis; Week 12): −0.6 | Physician B&B, non-menstrual pelvic pain (endometriosis; Week 12): −1.1 | change from baseline in EHP-30, Control and powerlessness (endometriosis; Week 12): −19.6 | change from baseline in EHP-30, Self-image (endometriosis; Week 12): −6.1 | change from baseline in EHP-30, emotional well-being (endometriosis; Week 12): −8.8 | change from baseline in EHP-30, pain (endometriosis; Week 12): −23.2 | change from baseline in EHP-30, social support (endometriosis; Week 12): −6.8 | change from baseline in mean VAS score, pelvic pain (endometriosis; end of 12-wk treatment period): −10.460±10.3013 mm | Modified (patient) B&B, deep dyspareunia (endometriosis; end of treatment): −0.36 | Modified (patient) B&B, dysmenorrhea (endometriosis; end of treatment): −1.16 | Modified (patient) B&B, non-menstrual pelvic pain (endometriosis; end of treatment): −0.41 | change from baseline in proportion of days with usage of analgesics (endometriosis; end of treatment): −8.3 | Deaths [2]: 0(0.0) n(%) | proportion of subjects with a PBAC <10 (uterine fibroids): 83.1%
